# Reference: article PMC6332165, “Study of the Relationships between the Structure, Lipophilicity and Biological Activity of Some Thiazolyl-carbonyl-thiosemicarbazides and Thiazolyl-azoles” (Molecules, 2015)
# What was measured:
# [1] = tested on: turpentine oil-induced inflammation; set-up: method as in PMID 23504664; Leukocytes (L, leukocytes count):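 lower leukocyte count means stronger anti-inflammatory effect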; details: mean ± SD; cited from earlier work
# [2] = tested on: phagocytes; set-up: method as in PMID 23504664; details: turpentine oil-induced inflammation, mean ± SD; cited from earlier work
# [3] = Lipophilicity by reversed-phase thin-layer chromatography (RP-TLC), isopropanol-water mobile phase; type: physicochemical; details: RP-18F254s TLC, iso-propanol-water 45-65% (v/v); for RM0 (lipophilicity estimation parameter, intercept of RM = RM0 + bC): extrapolated to pure water
# Description: Some of the parameters resulting from a RP-TLC may be associated to the lipophilic character of the analytes. The retention parameters (RM) are calculated by means of well-known Batte-Smith and Westall Equation (1): RM = log (1/RF − 1) (1)
# Generally, the RM values determined by RP-TLC are linearly dependent on the concentration of the organic modifier (C) in the mobile phase Equation (2): RM = RM0 + bC (2) where b and RM0 are, respectively, the slope and the intercept of Equation (2). […] Additionally, it has been stated that not only the RM0, but also the slope, b, as a characteristic of the specific hydrophobic surface area of the compounds, can be used as an estimation of lipophilicity. The advantages of TLC methods consist in the small quantity of compounds needed for the determination, and the rapidity and simplicity of the method. Also, they are inexpensive, rapid and easy to perform.
# Chromatography was performed on 20 × 20 cm RP-18F254s TLC precoated silica plates (Merck; Darmstadt, Germany). Solutions (1 mg/mL) of the tested compounds were prepared in iso-propanol, and 3 μL aliquots were spotted in duplicate on the plates by hand, 10 mm from the bottom edge and 20 mm apart. The mobile phases were composed of the iso-propanol-water binary mixtures, with a varying content of organic modifier between 45% and 65% (v/v) in 5% increments, as the study compounds differed considerably in their retention. Chromatography was performed in a normal developing chamber at room temperature, the developing distance being 10 cm. The chromatography chamber was saturated with the mobile phase for 30 min before use. After the development (30–60 min), the plates were air dried at room temperature and examined under a UV lamp (λ = 254 nm), and the RF (retardation factor) values were measured manually by a digital caliper. The experiments were performed in triplicate.
# [4] = tested on: nitric oxide (NO) synthesis; set-up: method as in PMID 23504664; unit not given here; details: turpentine oil-induced inflammation, mean ± SD; cited from earlier work
# [5] = tested on: oxidative stress; set-up: method as in PMID 23504664; details: turpentine oil-induced inflammation, mean ± SD; cited from earlier work
SMILES,"Leukocytes (L, leukocytes count) [1]","PMN (polymorphonuclear leukocytes, differential leucocyte count) [1] [%]",PA (phagocytic activity) [2],PI (phagocytosis index) [2] [%],"b (slope of RM = RM0 + bC, specific hydrophobic surface area) [3]","RM0 (lipophilicity estimation parameter, intercept of RM = RM0 + bC) [3]",NO (nitric oxide synthesis) [4],OSI (oxidative stress index) [5],TAR (total antioxidant response) [5],TOS (total oxidative status) [5]
Cc1nc(-c2ccccc2)sc1C(=O)NNC(=S)Nc1ccccc1 [Th-1],5587.5 ± 455,60.4 ± 4.1,18.5 ± 1.8,21.5 ± 4.6,−2.627,1.369,50.479 ± 5.7,4.66 ± 2.2,1.108 ± 0.003,51.622 ± 6.2
Cc1ccc(-c2nc(C)c(C(=O)NNC(=S)Nc3ccccc3)s2)cc1 [Th-2],6543 ± 271,60.6 ± 3.1,22.5 ± 2.8,21.5 ± 2.8,−2.853,1.595,51.827 ± 6.3,5.76 ± 5.3,1.099 ± 0.003,63.265 ± 5.4
Cc1nc(-c2ccc(Br)cc2)sc1C(=O)NNC(=S)Nc1ccccc1 [Th-3],4987 ± 133,63.6 ± 3.9,31 ± 1.8,21.5 ± 0.9,−2.739,1.600,52.838 ± 8.9,3.62 ± 2.9,1.095 ± 0.003,39.601 ± 7.9
CNC(=S)NNC(=O)c1sc(-c2ccccc2)nc1C [Th-4],"12,218.8 ± 1341",82.8 ± 4.1,29 ± 1.8,22.5 ± 3.5,−2.355,0.986,47.501 ± 2.8,4.49 ± 3.6,1.109 ± 0.006,49.823 ± 3.6
CNC(=S)NNC(=O)c1sc(-c2ccc(C)cc2)nc1C [Th-5],"11,633.3 ± 154",59.8 ± 3.6,22.5 ± 0.9,19.5 ± 2.3,−2.502,1.161,47.024 ± 8.9,4.7 ± 3.1,1.096 ± 0.001,51.557 ± 17.1
CNC(=S)NNC(=O)c1sc(-c2ccc(Br)cc2)nc1C [Th-6],6056.25 ± 862,70.4 ± 2.9,18 ± 1.5,13 ± 3.2,−2.740,1.398,50.591 ± 9.1,3.93 ± 2.6,1.097 ± 0.006,43.108 ± 5.6
C=CCNC(=S)NNC(=O)c1sc(-c2ccccc2)nc1C [Th-7],6356.25 ± 66,73.2 ± 4.0,53.5 ± 3.5,20.5 ± 0.9,−2.484,1.195,54.355 ± 6.2,3.98 ± 3.8,1.107 ± 0.003,44.073 ± 3.8
C=CCNC(=S)NNC(=O)c1sc(-c2ccc(C)cc2)nc1C [Th-8],5718.75 ± 104,66.6 ± 1.0,21 ± 1.1,21.5 ± 0.9,−2.685,1.398,48.793 ± 5.5,5.03 ± 4.1,1.107 ± 0.002,55.664 ± 4.2
Cc1nc(-c2ccccc2)sc1-c1nnc(S)n1-c1ccccc1 [Th-9],9000 ± 428,67.4 ± 3.0,20.5 ± 0.9,21 ± 7.0,−2.630,1.479,65.479 ± 4.8,6.25 ± 5.2,1.101 ± 0.001,68.780 ± 16.2
Cc1ccc(-c2nc(C)c(-c3nnc(S)n3-c3ccccc3)s2)cc1 [Th-10],5606.25 ± 154,61.2 ± 3.4,23 ± 1.1,20.5 ± 0.9,−2.948,1.754,65.142 ± 5.3,4.95 ± 5.4,1.095 ± 0.003,54.164 ± 5.4
Cc1nc(-c2ccc(Br)cc2)sc1-c1nnc(S)n1-c1ccccc1 [Th-11],"11,137.5 ± 483",86.4 ± 2.6,19.75 ± 2.4,21 ± 1.1,−3.133,2.020,66.799 ± 5.9,6.08 ± 4.9,1.092 ± 0.003,66.394 ± 8.9
Cc1nc(-c2ccccc2)sc1-c1nnc(S)n1C [Th-12],8456.25 ± 565,78.6 ± 1.0,20 ± 1.5,22.5 ± 3.5,−2.463,1.305,70.029 ± 6.4,8.27 ± 4.2,1.095 ± 0.004,90.592 ± 4.2
Cc1ccc(-c2nc(C)c(-c3nnc(S)n3C)s2)cc1 [Th-13],"10,172 ± 331",80.8 ± 3.0,27.5 ± 0.9,25.5 ± 2.8,−2.672,1.565,75.451 ± 6.9,4.63 ± 3.6,1.1 ± 0.012,50.886 ± 5.6
Cc1nc(-c2ccc(Br)cc2)sc1-c1nnc(S)n1C [Th-14],"10,172 ± 520",75.4 ± 4.5,23.5 ± 0.9,28 ± 2.1,−2.659,1.630,86.04 ± 2.9,6.1 ± 4.7,1.097 ± 0.006,66.876 ± 9.7
C=CCn1c(S)nnc1-c1sc(-c2ccccc2)nc1C [Th-15],9982.5 ± 81,77.4 ± 5.1,29 ± 3.2,24 ± 4.3,−2.905,1.664,71.630 ± 5.9,6.32 ± 4.4,1.094 ± 0.006,69.171 ± 4.4
